This is an account of results in publication PMC4461796, “Synthesis, anticholinesterase and antioxidant potentials of ketoesters derivatives of succinimides: a possible role in the management of Alzheimer’s” (Chemistry Central Journal, 2015).

Converted amounts (≈) assume the structure as drawn. “And” between values parts separate entries of the source, which are not always exact repeats. Equal entries are not always repeated. Where two headings read alike, the source gives them in different places. Some results are limits rather than exact numbers.

For assay [1], the target named is T1, butyrylcholinesterase (BChE) from equine serum (Equus caballus, UniProt P81908).
T1 construct: BChE equine serum Lyophilized (CAS 9001-08-5 Sigma-Aldrich GmbH USA); purchased Sigma-Aldrich CAS 9001-08-5 (catalogue number not given); host or cells: equine serum
The assay is described as follows: Butyrylcholinesterase inhibition assay (Ellman's spectrophotometric assay). Type of assay: biochemical. To be noted: for inhibition at 250 µg/mL / inhibition at 500 µg/mL / inhibition at 1000 µg/mL: read-out: Percent AChEI (mean ± SEM) (Table 3, butyrylcholinesterase inhibition); for IC50: from 250-1000 μg/mL tested concentrations. How it is done:
(§1) The assay is based on the acetylcholinesterase promoted hydrolysis of acetylthiocholine iodide and butyrylthiocholine iodide by butyrylcholinesterase. The hydrolysis processes give 5-thio-2-nitrobenzoate anion followed by complexation with DTNB (which give yellow color) and is detected by the spectrophotometer.
(§2) Compounds (each separately) were dissolved in phosphate buffer (0.1 M) in concentrations ranging from 250–1000 μg/mL. […] Finally, potassium hydroxide was used to adjust pH. AChE (518 U/mg solid) and BChE (7–16 U/mg) were diluted in freshly prepared buffer pH 8.0 until final concentrations of 0.03 U/mL and 0.01 U/mL were obtained. Solutions of DTNB (0.0002273 M), ATchI and BTchI (0.0005 M) were prepared in distilled water and were kept in Eppendorf caps in the refrigerator.
(§3) For each assay, an enzyme solution of 5 μl was added to the cuvette followed by addition of compound (205 μl), and finally DTNB reagent (5 μl). The solution mixture was maintained at 30 °C for 15 min using water bath with subsequent addition of substrate solution (5 μl). A double beam spectrophotometer was used to measure the absorbance at 412 nm. […] The absorbances along with the reaction time were taken for four minutes at 30 °C and were repeated in triplicate. Finally, the enzyme activity and enzyme inhibition by control and tested samples were calculated from the rate of absorption with change in time (V = ΔAbs /Δt) as follow;
Where Vmax is enzyme activity in the absence of inhibitor drug.
(§4) Radical scavenging ability was calculated by a linear regression analysis among the inhibition percentages against the compounds concentrations via the Excel program.

A short description of assay [2]: ABTS free radicals scavenging assay. To be noted: for Percent inhibition (mean ± SEM), ABTS free radicals scavenging: n = 3; for IC50 (ABTS free radicals scavenging): from 250-1000 μg/mL tested concentrations. How it is done:
ABTS (2, 2-azinobis [3-ethylbenzthiazoline]-6-sulfonic acid) free radicals were also used to confirm the antioxidant activity of the synthesized compounds. The activity is based on the capacity of antioxidants to scavenge ABTS^+ radical cation causing a reduction in absorbance at 734 nm. ABTS (7 mM) and […] (2.45 mM) solutions were prepared and mixed. The resultant mixture was maintained at room temperature in dark for 12–16 h to get dark color solution containing ABTS^+ radical cations. At the time of activity, ABTS^+ radical cation solution was diluted with Phosphate buffer (0.01 M) pH 7.4 to adjust an absorbance value of 0.70 at 734 nm. Radical scavenging capability of the compounds was analyzed by mixing 300 μl of compound with 3.0 mL of ABTS solution in cuvette. The reduction in absorbance was measured spectrophotometrically after one minute of mixing the solutions and continued for six min. Ascorbic acid was used as a positive control. The assay was repeated three times and percent inhibition was calculated with formula; %scavengingeffect=Controlabsorbance‐Sampleabsorbance/Controlabsorbance×100
as §4

Assay [3] can be described thus: DPPH free radicals scavenging assay. The following applies: for Percent inhibition (mean ± SEM), DPPH free radicals scavenging: n = 3; for IC50 (DPPH free radicals scavenging): from 250-1000 μg/mL tested concentrations. The procedure:
The compounds’ free radical scavenging ability was evaluated using 1,1-diphenyl, 2-picrylhydrazyl (DPPH) free radicals. Different dilutions (250, 500 and 1000 μg/mL) of compounds (0.1 mL) were added to 0.004 % methanolic solution of DPPH. After 30 min the absorbance was measured at 517 nm using UV spectrophotometer. Ascorbic acid was used as positive control.
Percent scavenging activity was calculated as; A0−A1/A0×100
Where A0 is absorbance of control and A1 is the absorbance of the compound sample. Each experiment was performed in triplicate and inhibition curves were constructed using the GraphPad prism program (GraphPAD, San Diego, California, USA) and median inhibitory concentrations (IC50) values were determined.
as §4

The target in assay [4] is T2, acetylcholinesterase (AChE) from Electric eel (Electrophorus electricus, UniProt O42275).
T2 construct: AChE Electric eel (type-VI-S, CAS 9000-81-1 Sigma-Aldrich GmbH USA); purchased Sigma-Aldrich type-VI-S (CAS 9000-81-1; catalogue number not given)
Type of assay: biochemical. To be noted: n = 3. The procedure: as §1, §2, §3
Where Vmax is enzyme activity in the absence of inhibitor drug. […]

T2 sequence (O42275 24-633): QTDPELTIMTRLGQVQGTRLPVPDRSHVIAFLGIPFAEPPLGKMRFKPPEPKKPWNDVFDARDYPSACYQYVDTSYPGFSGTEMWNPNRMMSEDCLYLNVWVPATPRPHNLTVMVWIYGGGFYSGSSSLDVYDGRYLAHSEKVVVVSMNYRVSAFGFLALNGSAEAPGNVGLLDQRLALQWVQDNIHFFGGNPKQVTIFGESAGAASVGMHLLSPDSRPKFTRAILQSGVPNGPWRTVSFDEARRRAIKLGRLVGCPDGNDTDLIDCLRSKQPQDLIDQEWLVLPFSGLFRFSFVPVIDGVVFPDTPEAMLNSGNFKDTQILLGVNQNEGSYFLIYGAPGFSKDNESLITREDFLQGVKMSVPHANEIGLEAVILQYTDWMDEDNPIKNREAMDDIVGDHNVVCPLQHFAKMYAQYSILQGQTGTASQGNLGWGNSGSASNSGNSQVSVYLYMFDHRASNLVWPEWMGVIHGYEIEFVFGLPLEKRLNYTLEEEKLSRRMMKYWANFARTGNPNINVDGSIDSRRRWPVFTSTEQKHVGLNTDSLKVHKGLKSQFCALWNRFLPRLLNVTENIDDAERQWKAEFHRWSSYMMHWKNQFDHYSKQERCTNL
T1 sequence (P81908 whole entry): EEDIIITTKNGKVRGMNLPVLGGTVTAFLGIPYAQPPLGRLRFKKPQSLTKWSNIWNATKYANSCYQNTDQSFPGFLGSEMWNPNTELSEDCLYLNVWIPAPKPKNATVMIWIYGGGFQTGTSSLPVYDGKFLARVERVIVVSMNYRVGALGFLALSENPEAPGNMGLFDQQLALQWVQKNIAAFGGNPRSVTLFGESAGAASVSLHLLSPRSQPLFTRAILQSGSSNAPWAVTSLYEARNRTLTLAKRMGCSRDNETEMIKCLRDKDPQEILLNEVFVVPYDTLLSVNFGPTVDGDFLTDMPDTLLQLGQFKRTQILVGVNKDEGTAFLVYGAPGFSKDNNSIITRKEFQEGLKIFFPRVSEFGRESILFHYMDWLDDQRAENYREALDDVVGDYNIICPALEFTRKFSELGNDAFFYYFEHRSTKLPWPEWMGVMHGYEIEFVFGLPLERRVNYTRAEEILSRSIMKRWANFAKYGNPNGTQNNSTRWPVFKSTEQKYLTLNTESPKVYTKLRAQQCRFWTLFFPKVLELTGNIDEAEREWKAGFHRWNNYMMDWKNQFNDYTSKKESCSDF

Turning to `COc1ccc2c3c1O[C@H]1C[C@@H](O)C=C[C@@]31CCN(C)C2` [Galanthamine, reference compound], in assay [1], the inhibition at 250 µg/mL amounted to 71.72 ± 0.51%, the inhibition at 500 µg/mL was 85.47 ± 0.59% and the inhibition at 1000 µg/mL came out at 94.5 ± 0.71%.

In the case of `CCOC(=O)C1(C2CC(=O)N(Cc3ccccc3)C2=O)CCCC1=O` (centres unmarked) [Compound 2, Ethyl 1-(1-benzyl-2,5-dioxopyrrolidin-3-yl)-2-oxocyclopentanecarboxylate], the “Percent inhibition (mean ± SEM), ABTS free radicals scavenging” value is recorded as 59.66 ± 0.66 % in assay [2] (conc. 250 μg/mL), 72.45 ± 0.65 % in assay [2] (conc. 500 μg/mL) and 86.49 ± 0.49 % in assay [2] (conc. 1000 μg/mL). For the same molecule, the “IC50 (ABTS free radicals scavenging)” value in assay [2] worked out at 141 mg/L (≈ 411 µM). Also, the “Percent inhibition (mean ± SEM), DPPH free radicals scavenging” value in assay [3] (conc. 250 μg/mL) amounted to 33.61 ± 0.66 %; in assay [3] (conc. 500 μg/mL) it was 52.48 ± 0.56 %; in assay [3] (conc. 1000 μg/mL) it was 70.32 ± 0.61 %. In addition, the “IC50 (DPPH free radicals scavenging)” value in assay [3] came to 460 mg/L (≈ 1340 µM). In addition, the “Percent AChEI (mean ± SEM)” value in assay [4] (concentration 250 μg/mL) is 91.00 ± 0.52% and 91.00 ± 0.52 ^ns %; in assay [4] (concentration 500 μg/mL), 91.75 ± 0.04% and 91.75 ± 0.04 ^ns %; in assay [4] (concentration 1000 μg/mL) it was 98.75 ± 0.25% and 98.75% and 98.75 ± 0.25 ^ns %. Besides, the IC50 in assay [1] was less than 0.291 µM. The inhibition at 250 µg/mL in assay [1] turned out to be 84.25 ± 0.12%. Also, the inhibition at 500 µg/mL in assay [1] turned out to be 86.75 ± 0.22%. Also, the inhibition at 1000 µg/mL in assay [1] turned out to be 90 ± 0.1%.

As to `O=C1O[C@H]([C@@H](O)CO)C(O)=C1O` [Ascorbic acid, reference compound], the “Percent inhibition (mean ± SEM), ABTS free radicals scavenging” value in assay [2] (conc. 250 μg/mL) worked out at 84.66 ± 0.88%; in assay [2] (conc. 500 μg/mL) it was 87.23 ± 0.47%; in assay [2] (conc. 1000 μg/mL) it was 91.62 ± 0.62%. In addition, in assay [2], the “IC50 (ABTS free radicals scavenging)” value is less than 0.1 mg/L. The “Percent inhibition (mean ± SEM), DPPH free radicals scavenging” value came out at 78.61 ± 0.23% in assay [3] (conc. 250 μg/mL), 81.71 ± 0.54% in assay [3] (conc. 500 μg/mL) and 93.56 ± 0.37% in assay [3] (conc. 1000 μg/mL). In assay [3], the “IC50 (DPPH free radicals scavenging)” value was determined as 20 mg/L (≈ 114 µM).

In the case of `CCOC(=O)C1(C2CC(=O)N(Cc3ccccc3)C2=O)CCCCC1=O` (centres unmarked) [Compound 4, 1Ethyl 1-(1-benzyl-2,5-dioxopyrrolidin-3-yl)-2-oxocyclohexanecarboxylate], the “Percent inhibition (mean ± SEM), ABTS free radicals scavenging” value in assay [2] (conc. 250 μg/mL) came out at 54.00 ± 1.15 %; in assay [2] (conc. 500 μg/mL), 67.33 ± 0.77 %; in assay [2] (conc. 1000 μg/mL) it was 73.59 ± 0.43 %. Further, in assay [2], the “IC50 (ABTS free radicals scavenging)” value was 173 mg/L (≈ 484 µM). The results for the “Percent inhibition (mean ± SEM), DPPH free radicals scavenging” value in assay [3] (conc. 250 μg/mL), in assay [3] (conc. 500 μg/mL) and in assay [3] (conc. 1000 μg/mL) were 20.34 ± 0.58 %, 24.75 ± 0.64 % and 45.80 ± 0.61 %, respectively. Also, the “IC50 (DPPH free radicals scavenging)” value in assay [3] is greater than 1000 mg/L. Also, the “Percent AChEI (mean ± SEM)” value in assay [4] (concentration 250 μg/mL) is 93.25 ± 0.15 ^ns %; in assay [4] (concentration 500 μg/mL), 96.00 ± 0.55 ^ns %; in assay [4] (concentration 1000 μg/mL) it was 97.25 ± 0.07% and 97.25 ± 0.07 ^ns %. This molecule also had an IC50 in assay [1] of 5.6 µM. Also, the inhibition at 250 µg/mL in assay [1] is 87.5 ± 0.04%. For the same molecule, in assay [1], the inhibition at 500 µg/mL amounted to 88.5 ± 0.5%. Moreover, the inhibition at 1000 µg/mL in assay [1] amounted to 98.5 ± 0.18%.

Take `CCOC(=O)C1(C2CC(=O)N(c3ccccc3)C2=O)CCCCC1=O` (centres unmarked) [Compound 3, Ethyl 2-oxo-1-(2,5-dioxo-1-phenylpyrrolidin-3-yl)cyclohexanecarboxylate]: the “Percent inhibition (mean ± SEM), ABTS free radicals scavenging” value in assay [2] (conc. 250 μg/mL) came to 64.67 ± 0.89 %; in assay [2] (conc. 500 μg/mL), 71.25 ± 0.48 %; in assay [2] (conc. 1000 μg/mL) it was 80.41 ± 0.73 %. The “IC50 (ABTS free radicals scavenging)” value in assay [2] was found to be 73 mg/L (≈ 213 µM). The “Percent inhibition (mean ± SEM), DPPH free radicals scavenging” value in assay [3] (conc. 250 μg/mL) is recorded as 30.59 ± 0.67 %; in assay [3] (conc. 500 μg/mL) it was 54.64 ± 0.70 %; in assay [3] (conc. 1000 μg/mL), 60.40 ± 0.49 %. The “IC50 (DPPH free radicals scavenging)” value in assay [3] is 535 mg/L (≈ 1560 µM). Also, the “Percent AChEI (mean ± SEM)” value was 95.25 ± 0.20 ^ns % in assay [4] (concentration 250 μg/mL); 96.00 ± 0.80 ^ns % in assay [4] (concentration 500 μg/mL); 98.50 ± 0.09% and 98.50 ± 0.09 ^ns % in assay [4] (concentration 1000 μg/mL). This molecule also gave an IC50 in assay [1] of 20.4 µM. In addition, the inhibition at 250 µg/mL in assay [1] stood at 78.25 ± 0.04%. The inhibition at 500 µg/mL in assay [1] was found to be 89 ± 0.3%. Also, in assay [1], the inhibition at 1000 µg/mL turned out to be 89.25 ± 0.5%.

Consider `CCOC(=O)C1(C2CC(=O)N(c3ccccc3)C2=O)CCCC1=O` (centres unmarked) [Compound 1, Ethyl 2-oxo-1-(2,5-dioxo-1-phenylpyrrolidin-3-yl)cyclopentanecarboxylate], for which the “Percent inhibition (mean ± SEM), ABTS free radicals scavenging” value in assay [2] (conc. 250 μg/mL) amounted to 65.00 ± 0.57 %; in assay [2] (conc. 500 μg/mL) it was 77.45 ± 0.54 %; in assay [2] (conc. 1000 μg/mL) it was 88.51 ± 0.62 %. Moreover, the “IC50 (ABTS free radicals scavenging)” value in assay [2] is 90 mg/L (≈ 273 µM). Further, the results for the “Percent inhibition (mean ± SEM), DPPH free radicals scavenging” value in assay [3] (conc. 250 μg/mL), in assay [3] (conc. 500 μg/mL) and in assay [3] (conc. 1000 μg/mL) were 35.60 ± 0.75 %, 52.49 ± 0.78 % and 72.41 ± 0.45 %, respectively. Moreover, the “IC50 (DPPH free radicals scavenging)” value in assay [3] came out at 440 mg/L (≈ 1340 µM). The “Percent AChEI (mean ± SEM)” value in assay [4] (concentration 250 μg/mL) was 93.25 ± 0.25 ^ns %; in assay [4] (concentration 500 μg/mL) it was 94.25 ± 0.05 ^ns %; in assay [4] (concentration 1000 μg/mL), 98.00 ± 0.70% and 98.00 ± 0.70^ns %. Besides, the IC50 in assay [1] is 128 µM. Moreover, the inhibition at 250 µg/mL in assay [1] came out at 72.5 ± 0.02%. Further, the inhibition at 500 µg/mL in assay [1] was determined as 82.5 ± 0.18%. Besides, in assay [1], the inhibition at 1000 µg/mL stood at 90.25 ± 0.02%.
